# Measured values reported in ChEMBL document CHEMBL5620346, “Current scenario of pyrazole hybrids with in vivo therapeutic potential against cancers” (Eur J Med Chem, 2023).
# pIC50: −log10 of the molar value.
# Legend:
# [1] = test system: BT-549; test: Antitumor activity against human BT-549 cells xenografted in BALB/c nude mouse assessed as tumor growth inhibition at 30 mg/kg, sc administered for 20 days relative to control; format: functional; settings: BT-549, 480 h, time 20 day, read-out: TGI
# [2] = test system: MCF7; test: Antiproliferative activity against human MCF7 cells assessed as reduction in cell viability incubated for 72 hrs by MTT assay; format: functional, cell-based; settings: MCF7, 72 h
# [3] = test system: MDA-MB-453; test: Antiproliferative activity against human MDA-MB-453 cells assessed as reduction in cell viability incubated for 72 hrs by MTT assay; format: functional, cell-based; settings: MDA-MB-453, 72 h
# [4] = test system: T47D; test: Antiproliferative activity against human T47D cells assessed as reduction in cell viability incubated for 72 hrs by MTT assay; format: functional, cell-based
# [5] = test system: BT-549; test: Antiproliferative activity against human BT-549 cells assessed as inhibition of cell proliferation incubated for 72 hrs by MTT assay; format: functional, cell-based; settings: BT-549, 72 h
# [6] = test system: MDA-MB-231; test: Antiproliferative activity against human MDA-MB-231 cells assessed as reduction in cell viability incubated for 72 hrs by MTT assay; format: functional, cell-based; settings: MDA-MB-231, 72 h
# [7] = […] in mouse xenografted with human NCI-H526 cells assessed as reduction in tumor growth at 3 mg/kg, po relative to control; format: organism-based; settings: in vivo
# [8] = test system: T47D; test: Antitumor activity against human T47D cells xenografted in nude BALB/c mouse assessed as tumor growth inhibition at 40 mg/kg administered via oral gavage for 20 days relative to control; format: functional; settings: 480 h, time 20 day, read-out: TGI
# [9] = test system: T47D; test: Antitumor activity against human T47D cells xenografted in nude BALB/c mouse assessed as tumor growth inhibition at 20 mg/kg administered via oral gavage for 20 days relative to control; format: functional; settings: 480 h, time 20 day, read-out: TGI
# [10] = test system: MCF7; test: Antiproliferative activity against human MCF7 cells assessed as reduction in cell viability incubated for 48 hrs by MTT assay; format: functional, cell-based; settings: MCF7, 48 h
# [11] = test system: HT-29; test: Antitumor activity against human HT-29 cells xenografted in BALB/c mouse assessed as reduction in tumor growth at 50 mg/kg, po administered once daily for 14 days relative to control; format: functional; settings: HT-29, 336 h, time 14 day, read-out: TGI
# [12] = test system: HT-29; test: Antitumor activity against human HT-29 cells xenografted in BALB/c mouse assessed as reduction in tumor growth at 50 mg/kg, ip administered once daily for 14 days relative to control; format: functional; settings: HT-29, 336 h, time 14 day, read-out: TGI
# [13] = test system: K562; test: Cytotoxicity against human K562 cells assessed as reduction in cell viability incubated for 48 hrs by MTT assay; format: functional, cell-based; settings: K562, 48 h
# [14] = test system: MCF7; test: Cytotoxicity against human MCF7 cells assessed as reduction in cell viability incubated for 48 hrs by MTT assay; format: functional, cell-based; settings: MCF7, 48 h
# [15] = test system: HT-29; test: Cytotoxicity against human HT-29 cells assessed as reduction in cell viability incubated for 48 hrs by MTT assay; format: functional, cell-based; settings: HT-29, 48 h
# [16] = test system: HT-29; test: Antitumor activity against human HT-29 cells xenografted in BALB/c mouse assessed as reduction in tumor growth at 25 mg/kg, ip relative to control; format: functional; parameters: scale not given: the % may be the effect or the level left
# [17] = test system: MIA PaCa-2; test: Antiproliferative activity against human MIA PaCa-2 cells measured after 72 hrs by MTT assay; format: functional, cell-based; settings: MIA PaCa-2, 72 h
# [18] = test system: COLO357; test: Inhibition of cell growth in human COLO357 cells incubated for 72 hrs by MTT assay; format: functional, cell-based; settings: COLO357, 72 h
# [19] = test system: B16-F10; test: Antiproliferative activity against mouse B16-F10 cells assessed as reduction in cell proliferation incubated for 4 days by crystal violet based assay; format: functional; settings: B16-F10, 96 h
# [20] = test system: PANC-1; test: Anticancer activity against human PANC-1 cells assessed as reduction in cell viability by measuring ATP level incubated for 24 hrs by CellTiter-Glo assay; format: functional, cell-based; settings: PANC-1, 24 h
# [21] = test system: B16-F10; test: Antitumor activity against mouse B16-F10 cells implanted in C57BL/6 mouse assessed tumor growth inhibition at 2.5 mg/kg, ip measured for 14 days relative to control; format: functional; settings: B16-F10, 336 h, time 14 day, read-out: TGI
# [22] = test system: MDA-MB-231; test: Antiproliferative activity against human MDA-MB-231 cells assessed as reduction in cell viability incubated for 48 hrs by MTT assay; format: functional, cell-based; settings: MDA-MB-231, 48 h
# [23] = test system: Panc02; test: Antiproliferative activity against mouse Panc02 cells measured after 72 hrs by MTT assay; format: functional, cell-based; settings: Panc02, 72 h
# [24] = test system: NCI-H1581; test: Antitumor activity against human NCI-H1581 cells xenografted in BALB/c nude mouse assessed as tumor growth inhibition once daily at 10 mg/kg, ip for 24 days relative to control; settings: NCI-H1581, 576 h, read-out: TGI
# [25] = test system: SNU-16; test: Antiproliferative activity against human SNU-16 cells assessed as reduction in cell viability by SRB assay; format: functional, cell-based
# [26] = test system: NCI-H1581; test: Antitumor activity against human NCI-H1581 cells xenografted in BALB/c nude mouse assessed as tumor growth inhibition once daily at 50 mg/kg, ip for 24 days relative to control; settings: NCI-H1581, 576 h, read-out: TGI
# [27] = AUC (0 to infinity) in CD-1 mouse at 3 mg/kg, ip measured after 24 hrs by LC-MS/MS analysis; format: ADME, organism-based; settings: in vivo
# [28] = test system: NCI-H1581; test: Antiproliferative activity against human NCI-H1581 cells assessed as reduction in cell viability by SRB assay; format: functional, cell-based
# [29] = Antiproliferative activity against human UMUC14 cells assessed as reduction in cell viability by SRB assay; format: functional, cell-based
# [30] = target: Vascular endothelial growth factor receptor 2 (Homo sapiens, UniProt P35968); test: Inhibition of VEGFR2 (unknown origin)
# [31] = test system: KG-1; test: Antiproliferative activity against human KG-1 cells assessed as reduction in cell viability by SRB assay
# [32] = Half life in CD-1 mouse at 3 mg/kg, ip measured after 24 hrs by LC-MS/MS analysis; format: ADME, organism-based; settings: in vivo
# [33] = target: Vascular endothelial growth factor receptor 1 (Homo sapiens, UniProt P17948); test: Inhibition of VEGFR1 (unknown origin)
# [34] = Cmax in CD-1 mouse at 3 mg/kg, ip measured after 24 hrs by LC-MS/MS analysis; format: ADME, organism-based; settings: in vivo
# [35] = test system: MDA-MB-231; test: Antiproliferative activity against human MDA-MB-231 cells assessed as reduction in cell growth incubated for 72 hrs by SRB assay; format: functional, cell-based; settings: MDA-MB-231, 72 h
# [36] = test system: HCT-116; test: Antitumor activity against human HCT-116 cells xenografted in BALB/c nude mouse assessed as tumor growth inhibition at 50 mg/kg, po administered once a daily for 13 consecutive days relative to control; format: functional; settings: read-out: TGI
# [37] = test system: NCI-H1299; test: Antiproliferative activity against human NCI-H1299 cells assessed as reduction in cell growth incubated for 72 hrs by SRB assay; format: functional, cell-based; settings: NCI-H1299, 72 h
# [38] = Antiproliferative activity against human 95-D cells assessed as reduction in cell growth incubated for 72 hrs by SRB assay; format: functional, cell-based
# [39] = test system: NCI-H1975; test: Antiproliferative activity against human NCI-H1975 cells assessed as reduction in cell growth incubated for 72 hrs by SRB assay; format: functional, cell-based; settings: NCI-H1975, 72 h
# [40] = Antiproliferative activity against HUVEC cells assessed as cell growth inhibition measured after 72 hrs by crystal violet staining based analysis; format: toxicity; settings: human
# [41] = test system: PANC-1; test: Antiproliferative activity against human PANC-1 cells assessed as reduction in cell growth incubated for 72 hrs by SRB assay; format: functional, cell-based; settings: PANC-1, 72 h
# [42] = test system: HCT-116; test: Antiproliferative activity against human HCT-116 cells assessed as reduction in cell growth incubated for 72 hrs by SRB assay; format: functional, cell-based; settings: HCT-116, 72 h
# [43] = test system: SK-OV-3; test: Antiproliferative activity against human SK-OV-3 cells assessed as reduction in cell growth incubated for 72 hrs by SRB assay; format: functional, cell-based; settings: SK-OV-3, 72 h
# [44] = test system: K562; test: Antiproliferative activity against human K562 cells assessed as reduction in cell growth incubated for 72 hrs by SRB assay; format: functional, cell-based; settings: K562, 72 h
# [45] = test system: HCT-116; test: Antitumor activity against human HCT-116 cells xenografted in BALB/c nude mouse assessed as tumor growth inhibition at 25 mg/kg, po administered once a daily for 13 consecutive days relative to control; format: functional; settings: read-out: TGI
# [46] = Cytotoxicity against human NCM460 cells assessed as reduction in cell viability incubated for 48 hrs by MTT assay; format: toxicity, cell-based
# [47] = test system: Bel-7402; test: Antiproliferative activity against human Bel-7402 cells assessed as reduction in cell growth incubated for 72 hrs by SRB assay; format: functional, cell-based; settings: Bel-7402, 72 h
# [48] = test system: U-87 MG; test: Antiproliferative activity against human U87 cells assessed as reduction in cell growth incubated for 72 hrs by SRB assay; format: functional, cell-based, U-87MG ATCC
# [49] = test system: HepG2; test: Antiproliferative activity against human HepG2 cells assessed as reduction in cell growth incubated for 72 hrs by SRB assay; format: functional, cell-based; settings: HepG2, 72 h
# Vascular endothelial growth factor receptor 1, sequence (P17948 whole entry): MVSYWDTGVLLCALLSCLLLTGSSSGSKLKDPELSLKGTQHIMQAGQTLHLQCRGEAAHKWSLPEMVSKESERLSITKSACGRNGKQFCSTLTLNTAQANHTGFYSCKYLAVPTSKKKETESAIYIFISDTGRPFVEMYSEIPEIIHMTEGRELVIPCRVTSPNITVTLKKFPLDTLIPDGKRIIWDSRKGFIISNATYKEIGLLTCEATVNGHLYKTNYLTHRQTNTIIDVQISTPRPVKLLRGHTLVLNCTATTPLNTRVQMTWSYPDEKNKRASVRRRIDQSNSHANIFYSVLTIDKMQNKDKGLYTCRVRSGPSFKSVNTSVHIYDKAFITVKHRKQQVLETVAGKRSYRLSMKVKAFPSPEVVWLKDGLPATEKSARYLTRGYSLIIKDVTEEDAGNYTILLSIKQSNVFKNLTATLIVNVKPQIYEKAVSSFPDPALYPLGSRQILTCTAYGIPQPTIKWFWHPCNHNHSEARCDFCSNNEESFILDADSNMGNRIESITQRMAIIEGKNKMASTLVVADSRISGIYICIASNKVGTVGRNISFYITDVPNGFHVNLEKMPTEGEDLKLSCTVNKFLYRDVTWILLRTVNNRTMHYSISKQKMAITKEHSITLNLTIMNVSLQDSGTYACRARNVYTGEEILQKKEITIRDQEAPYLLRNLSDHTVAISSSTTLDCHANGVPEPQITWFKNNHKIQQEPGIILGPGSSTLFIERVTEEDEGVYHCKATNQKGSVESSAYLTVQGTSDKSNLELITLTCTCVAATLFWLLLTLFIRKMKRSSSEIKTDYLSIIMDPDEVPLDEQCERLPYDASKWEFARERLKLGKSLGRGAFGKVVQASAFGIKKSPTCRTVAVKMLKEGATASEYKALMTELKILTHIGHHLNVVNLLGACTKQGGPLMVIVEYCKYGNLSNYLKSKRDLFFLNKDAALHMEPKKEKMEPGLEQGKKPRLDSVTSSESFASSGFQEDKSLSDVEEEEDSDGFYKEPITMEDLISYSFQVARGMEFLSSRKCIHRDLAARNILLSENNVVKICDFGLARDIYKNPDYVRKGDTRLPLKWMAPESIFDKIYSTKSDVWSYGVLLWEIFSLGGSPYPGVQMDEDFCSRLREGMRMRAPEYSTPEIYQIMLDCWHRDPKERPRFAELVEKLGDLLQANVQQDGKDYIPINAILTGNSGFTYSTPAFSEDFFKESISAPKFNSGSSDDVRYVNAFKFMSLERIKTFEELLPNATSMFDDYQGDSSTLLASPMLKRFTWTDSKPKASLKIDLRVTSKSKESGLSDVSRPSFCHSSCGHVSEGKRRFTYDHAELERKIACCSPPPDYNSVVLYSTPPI
# Vascular endothelial growth factor receptor 2, sequence (P35968 whole entry): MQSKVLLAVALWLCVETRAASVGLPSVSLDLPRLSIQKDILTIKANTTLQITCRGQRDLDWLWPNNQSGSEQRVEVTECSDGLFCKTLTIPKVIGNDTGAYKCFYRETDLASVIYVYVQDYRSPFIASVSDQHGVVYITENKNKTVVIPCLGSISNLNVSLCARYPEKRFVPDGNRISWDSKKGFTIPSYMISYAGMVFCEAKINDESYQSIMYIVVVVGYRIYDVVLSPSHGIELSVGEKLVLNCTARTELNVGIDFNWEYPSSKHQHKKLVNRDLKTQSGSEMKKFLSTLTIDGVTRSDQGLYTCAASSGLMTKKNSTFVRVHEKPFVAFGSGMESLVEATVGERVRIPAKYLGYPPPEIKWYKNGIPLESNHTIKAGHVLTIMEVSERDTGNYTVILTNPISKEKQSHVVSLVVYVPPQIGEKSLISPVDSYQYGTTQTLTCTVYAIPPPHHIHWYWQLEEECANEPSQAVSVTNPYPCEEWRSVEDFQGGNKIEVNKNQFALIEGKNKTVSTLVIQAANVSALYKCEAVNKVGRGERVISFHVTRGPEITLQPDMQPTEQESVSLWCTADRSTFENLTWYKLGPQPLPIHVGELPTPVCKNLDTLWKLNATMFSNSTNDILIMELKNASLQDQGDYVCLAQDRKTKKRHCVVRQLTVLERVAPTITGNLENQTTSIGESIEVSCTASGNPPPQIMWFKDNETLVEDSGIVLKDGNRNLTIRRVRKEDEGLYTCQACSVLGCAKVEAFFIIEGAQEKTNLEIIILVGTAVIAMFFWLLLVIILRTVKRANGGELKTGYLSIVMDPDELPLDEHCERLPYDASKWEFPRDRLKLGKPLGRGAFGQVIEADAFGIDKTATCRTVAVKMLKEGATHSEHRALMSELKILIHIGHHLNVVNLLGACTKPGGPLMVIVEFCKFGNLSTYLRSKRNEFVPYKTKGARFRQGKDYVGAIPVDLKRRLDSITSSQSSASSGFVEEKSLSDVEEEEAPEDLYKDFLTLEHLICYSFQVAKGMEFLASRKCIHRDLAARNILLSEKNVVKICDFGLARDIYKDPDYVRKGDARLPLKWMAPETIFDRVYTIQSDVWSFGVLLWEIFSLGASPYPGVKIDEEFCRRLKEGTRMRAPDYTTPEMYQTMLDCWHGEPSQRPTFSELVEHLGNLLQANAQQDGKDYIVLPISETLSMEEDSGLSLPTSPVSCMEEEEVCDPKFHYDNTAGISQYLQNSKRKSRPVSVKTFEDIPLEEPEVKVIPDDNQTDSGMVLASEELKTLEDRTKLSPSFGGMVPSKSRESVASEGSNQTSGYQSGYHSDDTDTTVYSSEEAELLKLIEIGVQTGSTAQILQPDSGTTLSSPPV
smiles,measurement,setting,value
CN(C)S(=O)(=O)Nc1cccc(-c2cnn(-c3ccc(C(F)(F)F)cc3)c2)c1,inhibition in vivo at 30 mg/kg,[1],~50%
same,pIC50,[2],5.46
same,pIC50,[3],5.46
same,pIC50,[4],5.46
same,pIC50,[5],5.46
same,pIC50,[6],5.46
Cc1nnn(C)c1-c1cnc2c3cc4cnn(C)c4cc3n([C@H](c3ccccc3)C3CCOCC3)c2c1,TGI,[7],100%
COc1ncc(-c2ccc3ncnc(Nc4cnn(CCO)c4)c3c2)cc1NS(=O)(=O)c1ccc(F)cc1F,inhibition in vivo at 40 mg/kg,[8],84.1%
same,inhibition in vivo at 20 mg/kg,[9],54.1%
Cc1ccc(C2CC(c3ccc(F)cc3)=NN2C(=O)CN2C(=O)CCC2=O)cc1 (centres undefined),pIC50,[10],6.11
same,inhibition in vivo at 50 mg/kg,[11],60%
same,inhibition in vivo at 50 mg/kg,[12],66%
O=C1NC(=O)/C(=C/c2ccc3cc(OCC(=O)N4N=C(c5ccc(F)cc5)CC4c4ccccc4Cl)ccc3c2)S1 (centres undefined),pIC50,[13],5.09
same,pIC50,[14],5.09
same,pIC50,[15],5.09
same,Activity,[16],30%
Clc1ccccc1C(c1ccccc1)(c1ccc(CCC[P+](c2ccccc2)(c2ccccc2)c2ccccc2)cc1)n1cccn1 (centres undefined),pIC50,[17],5.88
same,pIC50,[18],5.88
same,pIC50,[19],5.88
same,pIC50,[20],5.88
same,inhibition in vivo at 2.5 mg/kg,[21],60%
same,pIC50,[22],5.88
same,pIC50,[23],5.88
Cc1ccc2oc(-c3c4c(N)n[nH]c(=O)c4nn3-c3ccc(NC(=O)/C=C/CN(C)C)cc3)c(C)c2c1,inhibition in vivo at 10 mg/kg,[24],74.4%
same,pIC50,[25],> 9.52
same,inhibition in vivo at 50 mg/kg,[26],91.6%
same,AUC,[27],704 ng·h/mL
same,pIC50,[28],7.37
same,pIC50,[29],7.37
same,pIC50,[30],8.72
same,pIC50,[31],7.37
same,half-life,[32],222 min
same,pIC50,[33],8.52
same,Cmax,[34],282 ng/mL
CCOc1ccc(Oc2ccc(C3=NN(C4=NC(=O)CS4)C(c4cc(O)c(O)c(Br)c4Br)C3)cc2)cc1 (centres undefined),pIC50,[35],5.58
same,inhibition in vivo at 50 mg/kg,[36],67.2%
same,pIC50,[37],5.58
same,pIC50,[38],5.58
same,pIC50,[39],5.58
same,IC50 at 72 h,[40],28.3 µM
same,pIC50,[41],5.58
same,pIC50,[42],5.58
same,pIC50,[43],5.58
same,pIC50,[44],5.58
same,inhibition in vivo at 25 mg/kg,[45],58.8%
same,IC50 at 48 h,[46],27.1 µM
same,pIC50,[47],5.58
same,pIC50,[48],5.58
same,pIC50,[49],5.58
